Patent US20250313528A1, “NOVEL COMPOUND AND PHARMACEUTICAL COMPOSITION FOR PREVENTING OR TREATING PULMONARY FIBROSIS COMPRISING SAME AS ACTIVE INGREDIENT” (GIL MEDICAL CENTER, priority 2022, published 2025)

What was measured:
Format in all cases: cell-based, human
[1] = test system: MRC-5 cells; test: Transwell migration assay, MRC-5; details: MRC-5, TGF-β1 treatment, 24 hours, FIG. 5
Method: (§1) In accordance with the characteristics of myofibroblasts, in which the increased expression of proteins related to fibrogenesis leads to an increase of cell migration and invasion, migration and wound healing assays were conducted to examine the effects of the final selected Compound 1 and Compound 2 on cell migration using normal and diseased fibroblasts.
(§2) A 24-well culture plate was prepared with 500 μL of medium including FBS, and an 8 μm pore size insert was placed on top. Inside the insert, 300 μL of medium without FBS was added, and MRC-5 and DHLF-IPF cells were seeded at a density of 1×10^5 cells. […] After incubation, the medium inside the 8 μm pore polycarbonate membrane insert was carefully removed, washed with DPBS, and fixed in methanol for 5 minutes. The cells were then stained with Mayer's Haematoxylin for 8 minutes after washing twice with triple-distilled water. The stained cells were washed with DPBS, gently wiped with a cotton swab inside the insert, and the membrane was cut out and mounted on a slide. The migrated cells were counted under a microscope at 200× magnification.

[2] = test system: MRC-5 cells; test: Microscopic examination of cell morphology and proliferation, TGF-β1-induced MRC-5; details: MRC-5, TGF-β1-induced, microscope, FIG. 4a
Method: The effects of the two candidate compounds of sulforaphane prodrugs on cytotoxicity and morphological changes in normal lung fibroblast MRC-5 cells and diseased lung fibroblast DHLF-IPF cells were examined. The diseased lung fibroblast DHLF-IPF cell line was purchased from Lonza and cultured in FGM™-2 Fibroblast Growth Medium-2 BulletKit™ at 37° C. in a 5% CO2 incubator.
Additionally, the changes in cell morphology of two lung fibroblasts induced by TGF-β1 according to the treatments with Compound 1 and Compound 2 were examined with the naked eye through a microscope.

[3] = test system: FN, COL1A1, and α-SMA; test: qRT-PCR of fibrosis-related genes in TGF-β1-induced MRC-5 cells; details: MRC-5, 10 μM pretreatment 1 hour, TGF-β1 1 ng/ml 48 hours, FIG. 4c/4d
Method: MRC-5 and DHLF-IPF cells were each cultured in growth medium, and the medium was removed. […] The medium was then removed, and the cells were washed once with PBS. Intracellular total RNA was extracted from the cultured cells using TRIzol reagent (TaKaRa Bio Inc., Japan) for gene expression analysis. 1 mL of TRIzol reagent was added to lyse the cells and denature the tissue. The lysate was transferred to each 1.5 mL tube, and 200 μL of chloroform was added thereto, followed by vortexing for 20 seconds to ensure complete mixing. After incubating at room temperature for 15 minutes, the mixture was centrifuged at 14,000 rpm for 20 minutes to obtain the supernatant. After adding an equal volume of isopropyl alcohol, the tubes were inverted and incubated at room temperature for 10 minutes. The sample was centrifuged at 14,000 rpm for 15 minutes to obtain an RNA pellet, which was washed by centrifugation with 70% ethanol for use on RNA at 14,000 rpm for 5 minutes, and dried for 5 minutes. The dried RNA sample was added with 20 μL of distilled water treated with 0.1% diethyl pyrocarbonate (DEPC) to dissolve the pallet and the resultant was used as a sample for cDNA synthesis. 1 μL of the same was used to measure the RNA concentration and purity at O.D. 260/280 nm using a Nanodrop.
Single-stranded cDNA synthesis was performed by mixing 1 μg of the extracted total RNA with 1 μL of oligo-d(T) primer ([…]) and 10 mM dNTP (TaKaRa Bio Inc., Japan), reacting at 65° C. for 5 minutes, followed by rapid cooling. To this template, 4 μL of 5×RT buffer, 0.5 μL of RNA inhibitor, and 100 units of RTase (TaKaRa Bio Inc., Japan) were added, and the total volume was adjusted to 20 μL using DEPC-treated distilled water. […]
Each gene expression level was measured using real-time PCR. […] The specificity of the amplified product was confirmed through melting curve analysis, and the target genes were quantified and compared using GAPDH as a control gene.

[4] = test system: DHLF-IPF cells; test: Transwell migration assay, DHLF-IPF; details: inherent high migration, 24 hours, FIG. 5
Method: as §1, §2

[5] = test system: TGF-β1 signaling pathway; test: Western blotting of proteins related to TGF-β1 signaling pathway in DHLF-IPF; details: for expression level of Rock protein / expression levels of MRT/SRF in the cytoplasm and nucleus: increased by TGF-β1 treatment
Method: Specifically, to extract fibronectin and α-SMA proteins, the cells were washed once with cold PBS and then RIPA buffer (150 mM NaCl, 0.5% Triton X-100, 50 mM Tris-HCl, pH 7.4, 25 mM NaF, 20 mM EGTA), which was added with a protease inhibitor cocktail, was added thereto to lyse the cells. Then, the proteins were quantified using a BCA protein assay kit. All protein samples were subjected to electrophoresis at 10 μg on 8% to 10% PAGE gels and then transferred to 0.2 μm PVDF membranes (EMD Millipore, MA, USA). The membranes to which the protein was transferred were blocked with 5% BSA or 5% skim milk for 1 hour, and then primary antibodies were added thereto and incubated overnight at 4° C. The following day, the membranes were washed three times with PBST, and then HRP-conjugated secondary antibodies were added and reacted at room temperature for 1 hour. The PVDF membranes prepared through such procedures were smeared with ECL (Luminata™ Crescendo, EMD Millipore) and exposed to a fluorescence reader to confirm the level of protein expression.
The TGF-β1 signaling pathway can be activated through both Smad-dependent and Smad-independent pathways. The TGF-β/Smad signaling, which is a Smad-dependent pathway, is a crucial pathway that regulates the synthesis of extracellular matrix components. The Smad-independent (TGF-β/non-Smad) pathway is influenced by PI3K/AKT/mTOR and MAPK (JNK, ERK, p38), which are known to be involved in cell proliferation and growth. Based on this mechanism, the protein expression related to the TGF-β1 signaling pathway was comparatively analyzed using the same Western blotting method conducted in Example 2.

| Compound | cell migration (transwell) [1] | cell morphology [2] | inhibition of cell proliferation compared to sulforaphane-treated group [2] | gene expression levels of FN, COL1A1, and α-SMA [3] | cell migration (transwell) [4] | activity of p-AKT ([5]; TGF-β1) | activity of p-p38 ([5]; TGF-β1) | phosphorylation of Smad-2 ([5]; TGF-β1) | phosphorylation of Smad-7 ([5]; TGF-β1) | expression level of Rock protein [5] | expression levels of MRT/SRF in the cytoplasm and nucleus [5] | activity of p-ERK ([5]; TGF-β1) | activity of p-JNK ([5]; TGF-β1) | phosphorylation of Smad-3 ([5]; TGF-β1) |
| --- | --- | --- | --- | --- | --- | --- | --- | --- | --- | --- | --- | --- | --- | --- |
| CCOC(=O)C(CSC(=S)NCCCC[S+](C)[O-])NC(C)=O (stereo not shown) [Compound 1] | significantly inhibited in a dose-dependent manner | thin and elongated shape, which is similar to that of the control group | inhibition of cell proliferation was more significant | significantly reducing the expression levels compared to sulforaphane | significantly inhibited in a dose-dependent manner | significantly reducing the activity | significantly reducing the activity | inhibited | increased | significantly reduced | significantly reduced | – | – | – |
| C=CCOC(=O)C(CSC(=S)NCCCC[S+](C)[O-])NC(C)=O (stereo not shown) [Compound 2] | significantly inhibited in a dose-dependent manner | thin and elongated shape, which is similar to that of the control group | inhibition of cell proliferation was more significant | significantly reducing the expression levels compared to sulforaphane | significantly inhibited in a dose-dependent manner | significantly reduced the activity | reducing the activity | inhibited | increased | significantly reduced | significantly reduced | reducing the activity | reducing the activity | inhibited |
